The target of the assay is Recombinant human Mat2a (Homo sapiens, UniProt P31153). Briefly: Determination of Mat2A activity (384 well absorbance-based assay, Biomol Green). The class given is biochemical. Particulars: 12.5 nM Mat2A, 100 μM ATP and Methionine, 2% DMSO, 120 minutes at RT, absorbance at 635 nm. Here is the method:
Determination of Mat2A activity
Measurement of Mat2A inhibition is performed in 384 well format absorbance-based assay. Recombinant human Mat2a (12.5 nM) and serial diluted compounds in DMSO (range of concentrations from […] to 508 pM) or controls (DMSO) are incubated for 15 minutes at room temperature (RT) in assay buffer containing 50 mM HEPES pH 7.5, 50 mM KCl, 50 mM MgCl2, 0.01% Tween 20 and 10 mM DTT. The reaction is initiated by the addition of the combined substrates ATP and Methionine, each at a final concentration of 100 μM. Final assay condition are 12.5 nM Mat2A, 100 μM ATP and Methionine Substrates and 2% DMSO. After 120 minutes of incubation at RT, the reaction is stopped by the addition of Biomol Green. The absorbance signal is measured at λ=635 nm with a multiplate reader (BMG Pherastar reader or equivalent) after 30 min of equilibration at RT.
Sequence of Recombinant human Mat2a (P31153 whole entry): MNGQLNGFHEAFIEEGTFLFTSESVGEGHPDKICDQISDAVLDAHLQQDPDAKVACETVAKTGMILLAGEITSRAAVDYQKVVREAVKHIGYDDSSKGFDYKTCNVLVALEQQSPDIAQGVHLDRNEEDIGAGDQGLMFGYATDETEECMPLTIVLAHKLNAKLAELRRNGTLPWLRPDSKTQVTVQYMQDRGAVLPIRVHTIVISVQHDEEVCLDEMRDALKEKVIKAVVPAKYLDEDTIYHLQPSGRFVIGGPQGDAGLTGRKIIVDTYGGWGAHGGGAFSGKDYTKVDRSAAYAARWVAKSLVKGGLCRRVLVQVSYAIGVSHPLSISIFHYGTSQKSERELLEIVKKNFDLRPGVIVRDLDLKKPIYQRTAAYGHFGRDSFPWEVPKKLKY
In the case of `Nc1nc(=O)n([C@@H]2CCCOC2)c2nc(C3CC3)ccc12` [Example 26, 4-amino-7-cyclopropyl-1-[(3R)-oxan-3-yl]pyrido[2,3-d]pyrimidin-2-one], the IC50 is below 13 nM.

`Cc1ncccc1-n1c(=O)nc(N)c2ccc(C3CC3)nc21` [Example 7, 4-amino-7-cyclopropyl-1-(2-methylpyridin-3-yl)pyrido[2,3-d]pyrimidin-2(1H)-one]: the IC50 was below 13 nM. For the compound `Cc1cccc(-n2c(=O)nc(N)c3ccc(C4CC4)nc32)c1Cl` [Example 130, 4-amino-1-(2-chloro-3-methylphenyl)-7-cyclopropylpyrido[2,3-d]pyrimidin-2-one], the IC50 was below 13 nM. `Nc1nc(=O)n(-c2cccc3c2CCO3)c2nc(C3CC3)ccc12` [Example 17, 4-amino-7-cyclopropyl-1-(2,3-dihydrobenzofuran-4-yl)pyrido[2,3-d]pyrimidin-2(1H)-one]: the IC50 turned out to be 95 nM.

Regarding `Nc1nc(=O)n(-c2cccc(Cl)c2)c2nc(C3CC3)ccc12` [Example 152, 4-amino-1-(3-chlorophenyl)-7-cyclopropylpyrido[2,3-d]pyrimidin-2 (1H)-one], the IC50 was found to be 14 nM. With `Cc1c(C#N)cccc1-n1c(=O)nc(N)c2ccc(C3CC3)nc21` (single isomer, unassigned) [Example 146, (−)-3-(4-amino-7-cyclopropyl-2-oxopyrido[2,3-d]pyrimidin-1 (2H)-yl)-2-methylbenzonitrile], the IC50 turned out to be 58 nM. Under `Cc1c(CF)cccc1-n1c(=O)nc(N)c2ccc(C3CC3)nc21` [Example 131, 4-amino-7-cyclopropyl-1-(3-(fluoromethyl)-2-methylphenyl)pyrido[2,3-d]pyrimidin-2 (1H)-one] stands below 13 nM; under `COc1cccc(-n2c(=O)nc(N)c3ccc(C4CC4)nc32)n1` [Example 72, 4-amino-7-cyclopropyl-1-(6-methoxypyridin-2-yl)pyrido[2,3-d]pyrimidin-2(1H)-one], below 13 nM. Consider `Nc1nc(=O)n(-c2cccc(F)c2F)c2nc(C3CC3)ccc12` [Example 73, 4-amino-7-cyclopropyl-1-(2,3-difluorophenyl)pyrido[2,3-d]pyrimidin-2(1H)-one], for which the IC50 was below 13 nM. Consider `Cc1ncccc1-n1c(=O)nc(O)c2ccc(C3CC3)cc21` [Example 98, 7-cyclopropyl-1-(2-methylpyridin-3-yl)quinazoline-2,4-dione], for which the IC50 came to 200 nM. Turning to `Nc1nc(=O)n(-c2cccc3[nH]ccc23)c2nc(C3CC3)ccc12` [Example 164, 4-amino-7-cyclopropyl-1-(1H-indol-4-yl)pyrido[2,3-d]pyrimidin-2-one], the IC50 was below 13 nM.

On to `N#Cc1cccc(-n2c(=O)nc(N)c3ccc(C4CC4)nc32)c1F` [Example 126, 3-(4-amino-7-cyclopropyl-2-oxopyrido[2,3-d]pyrimidin-1 (2H)-yl)-2-fluorobenzonitrile], for which the IC50 is below 13 nM. Regarding `CCc1ccc2c(N)nc(=O)n(-c3cccnc3C)c2c1` [Example 48, 4-amino-7-ethyl-1-(2-methylpyridin-3-yl)quinazolin-2(1H)-one], the IC50 was below 13 nM. `Nc1nc(=O)n(-c2ccccc2Cl)c2nc(C3CC3)ccc12` [Example 64, 4-amino-1-(2-chlorophenyl)-7-cyclopropylpyrido[2,3-d]pyrimidin-2-one]: the IC50 was below 13 nM. Regarding `COc1c(C#N)cccc1-n1c(=O)nc(N)c2cc(Cl)c(C(C)C)nc21` [Example 105, 3-(4-amino-6-chloro-7-isopropyl-2-oxopyrido[2,3-d]pyrimidin-1 (2H)-yl)-2-methoxybenzonitrile], the IC50 worked out at 42 nM. On to `Nc1nc(=O)n(-c2cccc(OC(F)F)n2)c2nc(C3CC3)ccc12` [Example 108, 4-amino-7-cyclopropyl-1-(6-(difluoromethoxy)pyridin-2-yl)pyrido[2,3-d]pyrimidin-2 (1H)-one], for which the IC50 was below 13 nM.

Take `COc1cc(C(F)(F)F)cc2c1c(N)nc(=O)n2-c1cccnc1C` [Example 102, 4-amino-5-methoxy-1-(2-methylpyridin-3-yl)-7-(trifluoromethyl)quinazolin-2 (1H)-one]: the IC50 turned out to be 14 nM.

As for `Nc1nc(=O)c(-c2ccccc2Cl)c2cc(C3CC3)ccn12` [Example 111, 4-(2-chlorophenyl)-6-cyclopropyl-1-imino-pyrido[1,2-c]pyrimidin-3-one], the half-maximal inhibitory concentration (IC50) was below 13 nM. Consider `Nc1nc(=O)n(-c2cccc(F)c2)c2nc(C3CC3)ccc12` [Example 80, 4-amino-7-cyclopropyl-1-(3-fluorophenyl)pyrido[2,3-d]pyrimidin-2(1H)-one], for which the IC50 was below 13 nM.

Consider `Cc1cccc(-n2c(=O)nc(N)c3ccc(C4CC4)nc32)c1F` [Example 127, 4-amino-7-cyclopropyl-1-(2-fluoro-3-methylphenyl)pyrido[2,3-d]pyrimidin-2 (1H)-one], for which the IC50 was determined as 13 nM.

Take `C[C@@H]1OCC[C@H]1n1c(=O)nc(N)c2ccc(C3CC3)nc21` (racemic) [Example 30, 4-amino-7-cyclopropyl-1-[rac-(2RS,3SR)-2-methyloxolan-3-yl]pyrido[2,3-d]pyrimidin-2-one]: the IC50 stood at 22 nM. Under `Cc1cccc(-n2c(=O)nc(N)c3ccc(C4CC4)nc32)c1C` [Example 138, 4-amino-7-cyclopropyl-1-(2,3-dimethylphenyl)pyrido[2,3-d]pyrimidin-2 (1H)-one] stands below 13 nM; under `Nc1nc(=O)n([C@@H]2CCCCOC2)c2nc(C3CC3)ccc12` [Example 124, (R)-4-amino-7-cyclopropyl-1-(oxepan-3-yl)pyrido[2,3-d]pyrimidin-2 (1H)-one], below 13 nM. As to `Cc1ncoc1-n1c(=O)nc(N)c2ccc(C3CC3)nc21` [Example 50, 4-amino-7-cyclopropyl-1-(4-methyloxazol-5-yl)pyrido[2,3-d]pyrimidin-2-one], the IC50 worked out at 19 nM.

Consider `COc1c(F)cccc1-n1c(=O)nc(N)c2ccc(C3CC3)nc21` [Example 14, 4-amino-7-cyclopropyl-1-(3-fluoro-2-methoxyphenyl)pyrido[2,3-d]pyrimidin-2(1H)-one], for which the IC50 amounted to 27 nM. Turning to `Cc1ncccc1-n1c(=O)nc(N)c2ccc(OC3CC3)cc21` [Example 31, 4-amino-7-cyclopropyloxy-1-(2-methylpyridin-3-yl)quinazolin-2-one], the IC50 was 18 nM. On to `Nc1nc(=O)n([C@@H]2CCCOC2)c2cc(C(F)(F)F)ccc12` [Example 46, (R)-4-amino-1-(tetrahydro-2H-pyran-3-yl)-7-(trifluoromethyl)quinazolin-2(1H)-one], for which the IC50 amounted to 31 nM. Take `Cc1ncccc1-n1c(=O)nc(N)c2ccc(C(C)(C)F)cc21` [Example 58, 4-amino-7-(2-fluoropropan-2-yl)-1-(2-methylpyridin-3-yl)quinazolin-2-one]: the IC50 stood at 22 nM. As for `CC(C1CCOC1)n1c(=O)nc(N)c2ccc(C3CC3)nc21` (stereo not drawn) [Example 13, 4-amino-7-cyclopropyl-1-[1-(oxolan-3-yl)ethyl]pyrido[2,3-d]pyrimidin-2-one], the IC50 was 23 nM.

Take `N#Cc1cccc(-n2c(=O)nc(N)c3ccc(C4CC4)nc32)c1` [Example 151, 3-(4-amino-7-cyclopropyl-2-oxopyrido[2,3-d]pyrimidin-1 (2H)-yl)benzonitrile]: the IC50 was below 13 nM. Take `Cn1nccc1-n1c(=O)nc(N)c2ccc(C3CC3)nc21` [Example 44, 4-amino-7-cyclopropyl-1-(2-methylpyrazol-3-yl)pyrido[2,3-d]pyrimidin-2-one]: the IC50 was below 13 nM.

`C[C@@H]1OCCC[C@H]1n1c(=O)nc(N)c2ccc(C3CC3)nc21` [Example 119, 4-amino-7-cyclopropyl-1-((2S,3R)-2-methyltetrahydro-2H-pyran-3-yl)pyrido[2,3-d]pyrimidin-2 (1H)-one]: the IC50 is below 13 nM. For `COc1c(C#N)cccc1-n1c(=O)nc(N)c2cc(Cl)c(C3CC3)nc21` [Example 65, 3-(4-amino-6-chloro-7-cyclopropyl-2-oxopyrido[2,3-d]pyrimidin-1(2H)-yl)-2-methoxybenzonitrile], the IC50 came to 18 nM. On to `Nc1nc(=O)n(C2CCCOC23CC3)c2nc(C3CC3)ccc12` (stereo not drawn) [Example 88, 4-amino-7-cyclopropyl-1-(4-oxaspiro[2.5]octan-8-yl)pyrido[2,3-d]pyrimidin-2(1H)-one], for which the IC50 is below 13 nM. Under `Cc1c(O)cccc1-n1c(=O)nc(N)c2ccc(C3CC3)nc21` [Example 123, 4-amino-7-cyclopropyl-1-(3-hydroxy-2-methylphenyl)pyrido[2,3-d]pyrimidin-2 (1H)-one] stands 13 nM. For `Cc1c(F)cccc1-n1c(=O)nc(N)c2ccc(C3CC3)nc21` [Example 25, 4-amino-7-cyclopropyl-1-(3-fluoro-2-methylphenyl)pyrido[2,3-d]pyrimidin-2(1H)-one], the IC50 is below 13 nM. Regarding `Cc1ncsc1-n1c(=O)nc(N)c2ccc(C3CC3)nc21` [Example 51, 4-amino-7-cyclopropyl-1-(4-methylthiazol-5-yl)pyrido[2,3-d]pyrimidin-2-one], the IC50 was below 13 nM.

In the case of `Nc1nc(=O)n(-c2cccc(F)c2Cl)c2nc(C3CC3)ccc12` (single isomer, unassigned) [Example 117, (−)-4-amino-1-(2-chloro-3-fluorophenyl)-7-cyclopropylpyrido[2,3-d]pyrimidin-2 (1H)-one], the IC50 was 78 nM. `CCNc1ccc2c(N)nc(=O)n(-c3ccccc3C)c2c1` [Example 153, 4-amino-7-(ethylamino)-1-(o-tolyl)quinazolin-2-one]: the IC50 was found to be 17 nM.

The record behind these values is patent US20230227449A1, “AMIDOPYRIMIDONE DERIVATIVES” (Hoffmann-La Roche Inc., priority 2020, published 2023).
